Test results taken from PubChem BioAssay (NCI).
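A five-concentration, 48-hour dose response in 96-well plates underlies each endpoint, interpolated linearly between surrounding concentrations. Here, GI50 denotes the concentration required for 50% inhibition of growth. At the TGI there is no net growth.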

Tests used:
Experiment in all cases: NCI anticancer screen, dose series, 48 h
[1] = test system: RPMI-8226 leukemia
[2] = test system: M14 melanoma
[3] = test system: SNB-19 CNS
[4] = test system: NCI-H522 lung
[5] = test system: SK-MEL-5 melanoma
[6] = test system: CAKI-1 renal
[7] = test system: BT-549 breast
[8] = test system: SR leukemia
[9] = test system: RXF 393 renal
[10] = test system: UO-31 renal
[11] = test system: OVCAR-3 ovarian
[12] = test system: MALME-3M melanoma
[13] = test system: HCT-116 colon
[14] = test system: HOP-92 NSCLC
[15] = test system: SF-539 CNS
[16] = test system: MDA-MB-435
[17] = test system: NCI-H23 lung
[18] = test system: OVCAR-8 ovarian
[19] = test system: LOX IMVI melanoma
[20] = test system: MDA-MB-231 breast
[21] = test system: UACC-257 melanoma
[22] = test system: HOP-62 NSCLC
[23] = test system: TK-10 renal
[24] = test system: IGROV1 ovarian
[25] = test system: HT29 colon
[26] = test system: SN12C renal
[27] = test system: SF-295 CNS
[28] = test system: A549 NSCLC
[29] = test system: SK-MEL-28 melanoma
[30] = test system: NCI/ADR-RES ovarian
[31] = test system: A498 renal
[32] = test system: OVCAR-4 ovarian
[33] = test system: 786-0 renal
[34] = test system: CCRF-CEM leukemia
[35] = test system: MOLT-4 leukemia
[36] = test system: MCF7 breast
[37] = test system: SK-MEL-2 melanoma
[38] = test system: T-47D breast
[39] = test system: SF-268 CNS
[40] = test system: HCC-2998 colon
[41] = test system: KM12 colon
[42] = test system: DU-145 prostate
[43] = test system: SK-OV-3 ovarian
[44] = test system: ACHN renal
[45] = test system: SW-620 colon
[46] = test system: PC-3 prostate
[47] = test system: HL-60(TB) leukemia
[48] = test system: UACC-62 melanoma
[49] = test system: K-562 leukemia
[50] = test system: OVCAR-5 ovarian
[51] = test system: NCI-H226 lung
[52] = test system: U251 CNS
[53] = test system: NCI-H460 lung
[54] = test system: HCT-15 colon
[55] = test system: SNB-75 CNS
[56] = test system: HS 578T breast
[57] = test system: COLO 205 colon

Compound: C=CC(=O)N1CC2(CCC(n3nc(-c4ccc(Oc5ccccc5)cc4)c4c(N)ncnc43)CC2)C1
- GI50 [1]: 1510 nM
- TGI [1]: 5800 nM
- GI50 [2]: 1430 nM
- TGI [2]: 5230 nM
- GI50 [3]: 1230 nM
- TGI [3]: 15700 nM
- GI50 [4]: 67.6 nM
- TGI [4]: 995 nM
- GI50 [5]: 1550 nM
- TGI [5]: 2970 nM
- GI50 [6]: 28.3 nM
- TGI [6]: 709 nM
- GI50 [7]: 245 nM
- TGI [7]: 9780 nM
- GI50 [8]: 3350 nM
- TGI [8]: 18900 nM
- GI50 [9]: 16.8 nM
- TGI [9]: 267 nM
- GI50 [10]: 46.8 nM
- TGI [10]: 1660 nM
- GI50 [11]: 641 nM
- TGI [11]: 9610 nM
- GI50 [12]: 1500 nM
- TGI [12]: 9210 nM
- GI50 [13]: 40.7 nM
- TGI [13]: 1880 nM
- GI50 [14]: < 14 nM
- TGI [14]: 366 nM
- GI50 [15]: 174 nM
- TGI [15]: 1910 nM
- GI50 [16]: 1740 nM
- TGI [16]: 7130 nM
- GI50 [17]: 4390 nM
- TGI [17]: 17300 nM
- GI50 [18]: 1850 nM
- TGI [18]: 13100 nM
- GI50 [19]: < 10.6 nM
- TGI [19]: 847 nM
- GI50 [20]: 281 nM
- TGI [20]: 11100 nM
- GI50 [21]: 1460 nM
- TGI [21]: 8620 nM
- GI50 [22]: 10.3 nM
- TGI [22]: 6500 nM
- GI50 [23]: 36.2 nM
- TGI [23]: 266 nM
- GI50 [24]: < 12.5 nM
- TGI [24]: 462 nM
- GI50 [25]: < 17.5 nM
- TGI [25]: 1340 nM
- GI50 [26]: 179 nM
- TGI [26]: 10600 nM
- GI50 [27]: 2300 nM
- TGI [27]: 15700 nM
- GI50 [28]: 1460 nM
- TGI [28]: 9410 nM
- GI50 [29]: 2450 nM
- TGI [29]: 14000 nM
- GI50 [30]: 1740 nM
- TGI [30]: 17500 nM
- GI50 [31]: < 22.3 nM
- GI50 [32]: 1460 nM
- TGI [32]: 14200 nM
- GI50 [33]: 30.4 nM
- TGI [33]: 1630 nM
- GI50 [34]: 3650 nM
- TGI [34]: 21900 nM
- GI50 [35]: 1930 nM
- TGI [35]: 6390 nM
- GI50 [36]: 424 nM
- TGI [36]: 11400 nM
- GI50 [37]: 1500 nM
- TGI [37]: 3630 nM
- GI50 [38]: 19.7 nM
- TGI [38]: 5890 nM
- GI50 [39]: 255 nM
- TGI [39]: 6040 nM
- GI50 [40]: 4800 nM
- TGI [40]: 19600 nM
- GI50 [41]: 3020 nM
- TGI [41]: 10800 nM
- GI50 [42]: 368 nM
- TGI [42]: 2210 nM
- GI50 [43]: 52.5 nM
- TGI [43]: 787 nM
- GI50 [44]: < 12.3 nM
- TGI [44]: 362 nM
- GI50 [45]: 3980 nM
- TGI [45]: 21700 nM
- GI50 [46]: 1090 nM
- TGI [46]: 9200 nM
- GI50 [47]: 3200 nM
- TGI [47]: 10000 nM
- GI50 [48]: 1020 nM
- TGI [48]: 4850 nM
- GI50 [49]: 698 nM
- TGI [49]: 25600 nM
- GI50 [50]: 130 nM
- TGI [50]: 16600 nM
- GI50 [51]: 861 nM
- TGI [51]: 15000 nM
- GI50 [52]: 617 nM
- TGI [52]: 12700 nM
- GI50 [53]: 3430 nM
- TGI [53]: 16100 nM
- GI50 [54]: 200 nM
- TGI [54]: 12100 nM
- GI50 [55]: < 15.1 nM
- TGI [55]: 174 nM
- GI50 [56]: 108 nM
- TGI [56]: 1540 nM
- GI50 [57]: 143 nM
- TGI [57]: 1280 nM
